The test system of one series is IL-1β in BV2 cells. The experiment in a line: IL-1β secretion in LPS-stimulated BV2 cells (ELISA). The series is classed as cell-based. The conditions noted are these: Mus musculus, BV-2, 24 h, read-out: IL-1β inhibition IC50. The procedure: (§1) The cytotoxicity of compounds on BV2 cells were evaluated by MTT assay and similar to those described in Section 2.5. The NO concentrations in medium were determined using Griess Reagent assay (Beyotime) in accordance with a previously reported method. Nitrite is reduced to nitrogen oxide using Griess Reagent I. Nitrogen oxide then reacts with Griess Reagent II forming a stable product that can be detected by its absorbance at […]. The two-step assay is simple, fast, and can detect nitrite levels as low as 1 nmol/well. BV2 cells were seeded into a 48-well plate at a density of 6.0 × 10^4 cells per well. After the cells were incubated overnight, the old medium was discarded. Then, the cells were pretreated with various concentrations (10, 5, 1, 0.5, and 0.1 μM) of compounds for 1 h and then co-incubated with LPS (1 μg/mL, 30 μL/well) for 24 h. After 24 h, the cell supernatant (50 μL/well) was placed into a new 96-well plate for experiment. […] The absorbance at […] was measured by a microplate reader.
(§2) The contents of TNF-α and IL-β in the cell supernatant were measured via ELISA (Jyimei, Wuhan, China) following the manufacturer’s instructions.
A general note: An ELISA detects its analyte on a solid surface through an enzyme-linked reagent.

The test system of the next series is MDCKII-MDR1 cells. The experiment in a line: in vitro. The series is classed as in vitro ADME. The conditions noted are these: efflux ratio. The procedure:
(§3) Specifically, MDCKII-MDR1 cells (1 × 10^5 cell/cm^2) were seeded on polyester 12-well Transwell inserts (pore size: […], diameter: 12 mm, apical volume: 0.5 mL, basolateral: volume 1.5 mL) and cultured for 5–7 days to reach full differentiation as per TEER readings > 250 Ω·cm. […] After an incubation time of 2 h, samples were removed from the apical and basolateral side of the monolayer and were stored at −80 °C until further analysis.
(§4) The Papp was calculated according to the following equation (units of cm/s):(1) Papp=Va/area×time×Drugacceptor/Druginitial where “Va” is the volume in the acceptor well, “time” is the total transport time, “area” is the surface area of the membrane, “[Drug]initial” is the initial drug concentration in the AP or BL chamber, and “[Drug]acceptor” is the concentration of the drug in the acceptor chamber.
(§5) The ER was calculated using the following equation:ER = Papp, BL-AP/Papp, AP-BL(2) where “Papp, BL-AP” is the apparent permeability of basal-to-apical transport, and “Papp, AP-BL” is the apparent permeability of apical-to-basal transport.

The next series deals with P-gp (MDR1). The series can be described thus: in vitro. Format: in vitro ADME. The conditions noted are these: dog, MDCK-MDR1, MDCKII-MDR1. The method, then: as §3, §4, §5
The next series concerns mice. The series can be described thus: LD50 determination in mice (Bliss method). The series is classed as in vivo, C57BL mice. The conditions noted are these: intragastric 7 days. The procedure: (§6) Male C57BL mice (18–23 g; 8 weeks old) were purchased from the Experimental Center of Anhui University of Traditional Chinese Medicine. Mice were reared in a temperature and humidity controlled environment with free access to food and water, with self-adaptive rearing for 4 days.
(§7) Thirty mice were randomly divided into five groups, and the death of each group was counted after 7 days of intragastric administration (100, 80, 64, 51.2, 40.96 mg/kg). The Bliss method was used to calculate the LD50 and 95% confidence limit.

The nature of series [1]: LD50 determination in mice (Bliss method). Format: in vivo, C57BL mice. The conditions noted are these: male, C57BL, mouse, in vivo, po, intragastric administration 7 days, Bliss method, read-out: LD50 (95% confidence limit). The procedure: as §6, §7
The next series deals with TNF-α in BV2 cells. The series can be described thus: TNF-α secretion in LPS-stimulated BV2 cells (ELISA). Format: cell-based. The conditions noted are these: Mus musculus, BV-2, 24 h, read-out: TNF-α inhibition IC50. The procedure: as §1, §2
The next series relates to AML-12 cells. The series can be described thus: Hepatotoxicity in AML-12 cells (MTT). The conditions noted are these: 10, 30 and 50 μM. Format: cell-based. The procedure:
The hepatotoxicity of compound 4h in normal AML-12 hepatocytes and HepG2 liver cancer cells was examined by MTT method. AML-12 cells and HepG2 cells were seeded into 96-well plates at a density of 5.0 × 10^3 cells per well, respectively. After the cells were incubated overnight, the old medium was discarded. The cells were incubated for 48 h with fresh medium containing various concentrations of the test compound. After 48 h of incubation, 20 μL of MTT (5 mg/mL) was added to each well and incubate for an additional 4 h. Formazan was dissolved with DMSO (150 μL). […]

A further series addresses T1, BuChE (Equus caballus, UniProt P81908).
T1 construct: BuChE (from equine serum); purchased Sigma Chemical Company (St. Louis, MO, USA); host or cells: equine serum
The series can be described thus: Kinetic study of BuChE inhibition (Lineweaver–Burk). Format: biochemical. The method, then:
The specific steps are similar to those described in Section 4.3 for the enzyme inhibition assay. In brief, 100 μL of different concentrations of 4h (0, 0.075, 0.15, and 0.3 μM)/4h (0, 3, 6, and 12 μM) and 100 μL of different concentrations of AChE/BuChE (1, 0.5, 0.25, 0.125, and 0.0625 U/mL) were added into 48-well plates and then co-incubated at 37 °C for 30 min. After the end of incubation, 100 μL of ATCI/BTCI (0.35 mM), 100 μL of PB solution, and 100 μL DTNB (0.35 mM) were added, and then changes in absorbance were measured at different times at 412 nm by multifunctional microplate reader, and the catalytic reaction rate of AChE/BuChE was determined. All concentrations are final. With the enzyme reaction rate V as the ordinate and AChE/BuChE concentration as the abscissa, the curve was drawn to determine the reversibility of the compound to AChE/BuChE.
In order to determination of inhibition types and the constant of AChE/BuChE, the concentration of AChE/BuChE (0.5 U/mL) in the reaction system was fixed. Five different substrate concentrations and four different concentrations of test compound 4h were used to measure the absorbance changes at different times at 412 nm. The reciprocal of the enzymatic reaction rate (1/V) was taken as the ordinate, and the reciprocal of the substrate ATCI/BTCI concentration (1/S) was taken as the abscissa.
[…]. […]

T1 sequence (P81908 whole entry): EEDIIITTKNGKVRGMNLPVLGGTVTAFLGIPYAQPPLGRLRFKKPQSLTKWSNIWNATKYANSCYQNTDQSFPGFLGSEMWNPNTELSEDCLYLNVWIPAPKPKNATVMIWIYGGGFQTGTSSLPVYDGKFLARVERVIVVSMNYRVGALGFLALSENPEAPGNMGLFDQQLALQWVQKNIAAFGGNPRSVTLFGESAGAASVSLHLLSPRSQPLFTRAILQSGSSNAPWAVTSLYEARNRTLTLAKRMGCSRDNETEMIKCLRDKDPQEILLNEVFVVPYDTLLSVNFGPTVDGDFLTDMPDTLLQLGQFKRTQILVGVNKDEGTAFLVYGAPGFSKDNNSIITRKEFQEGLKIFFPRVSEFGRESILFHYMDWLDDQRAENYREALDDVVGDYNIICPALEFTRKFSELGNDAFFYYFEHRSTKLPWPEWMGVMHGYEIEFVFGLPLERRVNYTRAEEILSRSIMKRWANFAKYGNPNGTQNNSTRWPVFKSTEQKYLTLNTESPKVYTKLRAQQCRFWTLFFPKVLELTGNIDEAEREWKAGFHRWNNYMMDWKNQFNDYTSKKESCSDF

Take `O=C1c2cc(NS(=O)(=O)c3ccccc3F)ccc2-n2c1nc1ccccc1c2=O` [4h]: the concentration for half-maximal inhibition (IC50) in the series with IL-1β in BV2 cells stood at 1780 ± 210 nM; in the series with TNF-α in BV2 cells it was 1310 ± 280 nM. Also, the “ER Papp BL/Papp AP” value with MDCKII-MDR1 cells was “less than two”. This compound also gave a Papp A→B at 2 h, 75 μM in the series on P-gp (MDR1) (apical-to-basal, 2 h) of 18.1 ± 2.7 ×10⁻⁶ cm/s. This compound had a Papp B→A at 2 h, 75 μM in the series with P-gp (MDR1) (basal-to-apical, 2 h) of 17.4 ± 2.2 ×10⁻⁶ cm/s. For the same compound, in the series with P-gp (MDR1) (efflux ratio, read-out: ER Papp BL/Papp AP), the efflux ratio at 2 h, 75 μM was 0.96. For the same compound, the “Mortality rate (%)” value with mice (40.96 mg/kg) is listed as 0%; in the series on mice (51.2 mg/kg), 0%; in the series with mice (64 mg/kg), 16.7%; with mice (80 mg/kg), 50%; in the series with mice (100 mg/kg), 66.7%. Besides, the Number of deaths in the series with mice (40.96 mg/kg) was found to be 0; in the series with mice (51.2 mg/kg), 0; in the series on mice (64 mg/kg) it was 1; with mice (80 mg/kg), 3; with mice (100 mg/kg), 4. For the same compound, in series [1], the LD50 at 7 days was determined as 84.8 mg/kg. Besides, the “Hepatotoxicity in AML-12 cells” value in the series with AML-12 cells is recorded as “had no toxicity”. Moreover, the BuChE inhibition type entry at BuChE (Lineweaver–Burk double-reciprocal plot) is recorded as “mixed-type inhibition”. This compound also displayed a Ki at BuChE (Lineweaver–Burk secondary plot) of 5.33 µM.

The term IC50 denotes the concentration needed to halve the response being measured. Usually Papp A→B stands for how fast a substance crosses the layer from the apical side. A lower Papp A→B goes with poor permeation. As a reminder, the Papp B→A is the apparent permeability from the basolateral to the apical side of a cell layer. The term LD50 denotes the dose at which mortality reaches 50%. What is called Ki is the equilibrium dissociation constant of an inhibitor or competing ligand from its target. A lower Ki goes with higher affinity.

For the origin of these results see article PMC10610214 (Pharmaceuticals, 2023).
